These results are taken from US7964341B2, “Human endogenous retrovirus K102 with foamy-virus-like properties and uses thereof” (priority 2005, dated 2011).

The subject of this assay is HERV-K102 replication (cDNA production) in cultured cord blood cells. In words: Screening for agents able to modulate HERV-K102 replication (cDNA production) in cultured cord blood cells, real time PCR ddCt ratio. The format is cell-based, human. Particulars: for effect on HERV-K102 replication in cultured CB cells: approximately 10^-6 M or equivalent, harvested day 5. An excerpt: First we wished to show in normal lymphocytes that there are increased levels of HERV-K102 pol DNA over and above genomic when HERV-K102 associated particles are made. For this we extracted DNA and then performed the HERV-K102 ddCt ratio. Please see FIG. 15 for the sequences and location of the forward and reverse primers and the probe used for the real time PCR. […] We developed a ddCt ratio real time PCR method (relative quantitation) which takes the difference between HERV-K102 pol and 18 s RNA Ct's (delta Ct), and subtracts this from the same performed on commercial normal adult genomic DNA (male) (the delta delta Ct). Then we use the algorithm 2−(ddCt) to calculate the relative ratio of HERV-K102 to genomic DNA. This index when elevated above normal ratios (see Table 3 for these ratios) for fluids with contaminating cells (eg plasma and saliva) indicates an excess of non-genomic DNA templates and could be taken as a surrogate marker for putative particles in the sample. […] Since real time PCR is so sensitive, and we were only interested in the DNA copy number of HERV-K102 pol, we subsequently used the Qiagen DNA Mini kit for DNA extractions of plasma.
Commercially available master mix buffer can be purchased with or without Amperase-UNG a highly purified enzyme Uracil-N-Glycosylase, which when included in the buffer for the real time PCR will digest any DNA or cDNA templates containing uracil. […] Thus, if any isolated DNA becomes digested it must be non-genomic.
Finally we investigated certain natural products, drugs and peptide cytokines for their ability to regulate HERV-K replication such as measured in CB cells (Table 7). These agents were tested at approximately 10^−6 M or equivalent. We harvested the study on day 5. […] Tuftsin is naturally cleaved from the FC region of IgG and is considered an immunoenhancing substance and the 1/5000 concentration is usually employed to show its enhancing effects on the activation of monocytes.
Cord blood (CB) isolation. Under aseptic conditions, cord blood was collected into heparinized tubes and peripheral blood mononuclear cells (PBMC) were prepared as follows: the blood was centrifuged at 2700 rpm for 10 minutes, and the buffy coat placed in 5 mls of media (defined as IMDM plus 0.2% penicillin/gentamycin). The mixture was layered onto Ficoll-Paque (Pharmacia #17-0840-03) in a ratio of 1/3 Ficoll to blood suspension. The tubes were centrifuged 30 minutes at 1600 rpm.
Background: Real-time PCR tracks product formation cycle by cycle.

Setting [1] is: cord blood harvested Day 5, agents at approximately 10^-6 M or equivalent, Day 5 control 2.19.
Where [2] appears, read: cord blood harvested Day 5, agents at approximately 10^-6 M or equivalent, relative to Day 5 control ddCt ratio.
Where [3] appears, read: cord blood Day 5, uracil-N-glycosylase in master mix, agents at approximately 10^-6 M or equivalent.
The mark [4] stands for this setting: Tuftsin 1/5000, cord blood Day 5.

With `C[C@]12CC[C@H](O)CC1=CC[C@@H]1[C@@H]2CC[C@]2(C)C(=O)CC[C@@H]12` [DHEA, dihydroepiandrosterone], the “effect on HERV-K102 replication in cultured CB cells” value (from here on “effect … in cultured CB cells”) was “enhanced HERV-K102 replication”. For the same compound, under setting [1], the “HERV-K102 ddCt Ratio” value was 2.60. Under setting [2], the “Level of Control Activity (%)” value is given as 119%.
`C[C@]12CC[C@@H]3c4ccc(O)cc4CC[C@H]3[C@@H]1CC[C@@H]2O` [E2, estradiol]: the “Level of Control Activity (%)” value under setting [2] amounted to 133%.
Consider `CC1=C(c2ccc(O)cc2)[C@H](c2ccc(OCCN3CCCCC3)cc2)Oc2cc(O)ccc21` [EM652], for which the “effect … in cultured CB cells” value is reported as “enhanced HERV-K102 replication”. Further, the “ddCt performed with UNG” value under setting [3] is 2.06 (100%). In addition, the “HERV-K102 ddCt Ratio” value under setting [1] is listed as 3.07. In addition, under setting [2], the “Level of Control Activity (%)” value is 140%.
`CC/C(=C(\c1ccccc1)c1ccc(OCCN(C)C)cc1)c1ccccc1` [Tamoxifen, tamoxifen]: the “effect … in cultured CB cells” value is “enhanced HERV-K102 replication”. For the same compound, the “ddCt performed with UNG” value under setting [3] was 2.64 (63%). Besides, the “HERV-K102 ddCt Ratio” value under setting [1] came out at 3.43. For the same compound, the “Level of Control Activity (%)” value under setting [2] is on record as 157%.
Tuftsin: the “Level of Control Activity (%)” value was 65.7% (Tuftsin 1/500, cord blood Day 5) and 189% under setting [4]. Also, the “HERV-K102 ddCt Ratio” value by setting is: (Tuftsin 1/500, cord blood Day 5, control 2.19) 1.44; (Tuftsin 1/5000, cord blood Day 5, control 2.19) 4.14. Also, the “ddCt performed with UNG” value under setting [4] came to 2.10. Moreover, the “effect on HERV-K102 replication” value is, setting by setting: (Tuftsin at high levels (1/500)) “inhibited HERV-K102 replication”; (Tuftsin at low levels (1/5000)) “enhanced HERV-K102 replication”. Also, the “effect on HERV-BZU activation” value (depending on concentration, refers to Table 7) is recorded as “can enhance or inhibit HERV-BZU activation”.
